According to US12612408B2, “Pyrazolone-fused pyrimidine compound, preparation method for same and applications thereof” (SHANGHAI PHARMACEUTICALS HOLDING CO., LTD., priority 2019, dated 2026):

Target: T1, WEE1 kinase (Homo sapiens, UniProt P30291)
T1 construct: purchased CarnaBiosciences, Inc. 05-177
Test: Inhibitory effect of compound on WEE1 kinase in vitro (ELISA)
Assay type: biochemical
Details: ATP concentration of Km
Description: The tested compounds were screened on WEE1 kinase with ATP concentration of Km by ELISA. Compounds were screened on WEE1 kinase to evaluate the kinase inhibitory activity of the tested compounds. In the detection process, the initial concentration of the tested compounds was all selected as 100 nM, and each compound was selected with 6 gradient dilution concentrations, the gradient dilution ratio was 4-fold, and two replicate wells were detected for each concentration, MK1775 was used as the standard control.
WEE1, purchased from CarnaBiosciences, Inc., Item No. 05-177; dimethyl sulfoxide, purchased from Sigma-Aldrich, Item No. D8418; ATP, purchased from Sigma-Aldrich, Item No. A7699; DTT solution, purchased from Sigma-Aldrich, Item No. 43816; protein tyrosine kinase (PTK) substrate (poly-Glu-Tyr), purchased from Sigma-Aldrich, Item No. P4476; P-Tyr (PY99), purchased from Santa Cruz, Item No. sc-7020; Anti-mouse IgG HRP-linked Antibody, purchased from Santa Cruz, Item No. 7076S; TMB liquid Substrate System, purchased from Sigma-Aldrich, Item No. T0440; Costar Stripwell Microplate No Lid 1×8 Flat Bottom, Certified High Binding, purchased from Sigma-Aldrich, Item No. 42592; 96-well compound plate, purchased from Thermo Scientific, Item No. 267245.
• 1. Coating substrate: 1) An appropriate volume of substrate storage solution protein tyrosine kinase (PTK) substrate (poly-Glu-Tyr) was taken, diluted 10 times with PBS, and the concentration was diluted from […]. The mixture was added to a high adsorption 96-well plate at 125 μL per well. The plate was placed in an incubator at 37° C. for overnight coating. 2) After 24 hours, the 96-well plate was taken out, the liquid in the 96-well plate was poured out, cleaned with washing buffer for 3 times, and the incubator at 37° C. was inverted and dried for 2 hours. • 2. Compound preparation and transfer: 1) compound dilution: 10 mM of the test compound storage solution was taken, the compound in 96-well compound plate was diluted with DMSO in multiple steps to obtain the initial concentration of 100× compound as the first concentration, and then DMSO was used for 4-fold gradient dilution, for a total of 6 concentrations; after that, 2 μL of the gradient dilution solution was added to 48 μL of 1× reaction buffer respectively to prepare 4× compound; 2) 4× compounds were transferred: 10 μL of 4× compounds from the 96-well compound plate configured in the previous step were transferred into the dried high adsorption 96-well plate; 10 μL of the following liquids were added to the compound-free control wells and ATP-control wells: 2 μL of DMSO was added to 48 μL of 1× reaction buffer. • 3. Enzyme reaction stage: 1) WEE1 kinase and ATP were prepared into 2× enzyme solution and 4×ATP solution respectively with 1× reaction buffer. In this screening, the final concentration of WEE1 kinase was: 0.15 ng/μL and the final concentration of ATP was: […]; 2) 20 μL of enzyme solution of 2 was added to the high adsorption 96-well plate; 3) 10 μL of 4×ATP solution was added to the high adsorption 96-well plate and 10 μL of 1× reaction buffer was added to the ATP-control group; 4) the plate was placed in HERAEUS Multifuge X1R centrifuge at 2000 rpm for 20 s and then placed at room temperature and reacted for 60 min. • 4. Reaction termination stage: 1) the reaction mixture in the plate was poured out, 200 μL of washing buffer was added to each well, and washed for 5 times; the primary antibody P-Tyr (PY99) (dilution ratio 1:2000) was added, 100 μL per well, at room temperature for 30 min. 2) The primary antibody in the plate was poured out, 200 μL of washing buffer was added to each well, and washed for 5 times; the second antibody Anti-mouse IgG HRP-linked Antibody (dilution ratio 1:2000) was added, 100 μL per well, at room temperature for 30 min.

T1 sequence (P30291 whole entry): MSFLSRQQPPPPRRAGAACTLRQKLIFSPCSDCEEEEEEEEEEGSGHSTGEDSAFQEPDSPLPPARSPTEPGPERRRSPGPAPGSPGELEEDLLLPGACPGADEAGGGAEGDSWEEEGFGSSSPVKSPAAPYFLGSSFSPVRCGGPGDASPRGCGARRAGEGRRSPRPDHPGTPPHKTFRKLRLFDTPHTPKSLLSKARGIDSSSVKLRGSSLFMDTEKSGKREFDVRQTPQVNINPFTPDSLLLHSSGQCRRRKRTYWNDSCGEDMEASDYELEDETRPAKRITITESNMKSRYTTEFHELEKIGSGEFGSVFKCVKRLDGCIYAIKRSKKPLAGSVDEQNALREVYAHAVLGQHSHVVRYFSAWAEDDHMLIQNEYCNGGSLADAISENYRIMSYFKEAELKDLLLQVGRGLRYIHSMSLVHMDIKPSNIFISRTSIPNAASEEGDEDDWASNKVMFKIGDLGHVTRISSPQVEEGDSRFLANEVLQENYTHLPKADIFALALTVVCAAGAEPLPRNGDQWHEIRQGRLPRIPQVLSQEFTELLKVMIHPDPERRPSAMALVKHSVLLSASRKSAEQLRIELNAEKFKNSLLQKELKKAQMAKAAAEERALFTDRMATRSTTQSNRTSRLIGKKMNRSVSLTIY

C=CCn1c(=O)c2cnc(Nc3ccc(C4CCC(N5CCC5)CC4)cc3)nc2n1-c1cccc(C(C)(C)O)n1 (single isomer, unassigned) [Compound I-8-1]
IC50: 1.52 nM
